melting point	Compound
195 °C	O=C(O)c1ccc(Cl)c2c1OCCO2
155 to 156 °C	Cc1ccc(S(=O)(=O)c2ccccc2[N+](=O)[O-])cc1
162 °C	Cc1ccc(O)c(Cn2c(NCCCN3CCOCC3)nc3ccc(Cc4c(C)cc(NCCO)cc4C)cc32)n1
> 300 °C	O=C(c1ccccc1)c1ccc2nc3[nH]c(=O)[nH]c3cc2c1
179 to 181 °C	O=[N+]([O-])c1ccc2c(c1)N=Cc1ccccc1O2
138 to 139 °C	COc1ccc(/C=C/C(=O)c2cccc(O)c2)cc1OC
142 to 143 °C	CC(=O)NC(=O)N1CCSC1c1ccccc1OCCN1CCN(c2cccc(F)c2)CC1 (stereo not given)
193 to 194 °C	COC(=O)[C@H]1[C@@H]2CC[C@@](NC(=O)OC(C)(C)C)(C(=O)OC)[C@@H]21
154 to 155 °C	Cc1nc2ccccc2c(NCCO)c1Br
100 to 125 °C	COc1cc2c(cc1Nc1ncc(Cl)c(Nc3cc(C#N)ccc3OC)n1)CCN(CC(N)=O)CC2
179 to 180 °C	O=C(Nc1cccnc1)N1CCN(c2cc(-c3cccc(F)c3F)ncn2)CC1
144 to 145 °C	CSc1nnc(Sc2cc(C(C)(C)C)c(O)c(C(C)(C)C)c2)s1
214 to 217 °C	O=[N+]([O-])c1cn2c(n1)OC(COc1ccc(N3CCN(CC4CCN(Cc5ccc(C(F)(F)F)cc5)CC4)CC3)cc1)CC2 (stereo not given)
225 to 228 °C	O=C1OC(=O)c2nc3ccccc3cc21
94 to 95 °C	CC(C)N(CCS(=O)(=O)c1ccc(F)cc1)C(=O)Oc1ccccc1
114 °C	CC1(C)CCC(C)(C)C1C(=O)O
167 to 169 °C	CC(=O)N(O)C(CS(=O)(=O)c1ccc(-c2cccc(CNC(=O)c3nc4ccccc4c(=O)[nH]3)c2)cc1)C(C)C (stereo not given)
204 to 206 °C	COC(=O)c1cc(N)c(F)c(-c2ccc(Cl)c(OC)c2F)n1
177 to 179 °C	CCOC(=O)c1cn(C2CC2)c2nc(N3C[C@@H](CN(C)C(=O)C(F)(F)F)[C@@H](F)C3)c(F)cc2c1=O (relative stereo)
> 300 °C	Cc1c(-n2ccnc2)n(CCOc2ccc(C(=O)O)cc2)c2ccccc12
114 to 115 °C	CCCCN(CCCC)c1ccc(C=C(S(C)(=O)=O)S(C)(=O)=O)cc1
180 to 182 °C	O=C(Cc1ccccc1C(=O)O)Nc1cccc(/C=C/c2nc(C3CCCCCCC3)cs2)c1
161 °C	CN1CCC(OC(c2cccc(SCCNc3c(N)c(=O)c3=O)c2)c2nc3ccccc3[nH]2)CC1 (stereo not given)
197 to 198 °C	CC1Oc2ccc(CN3CCN(c4ccc(Cl)cn4)CC3)cc2NC1=O (stereo not given)

melting point	Compound
243 to 246 °C	C[C@H](CO)Nc1nc(SCc2cccc(F)c2F)nc2c1=NC(=O)C(=O)N=2
54 to 55 °C	CCOC(=O)C(NC(C)=O)C(=O)CCCCc1ccccc1 (stereo not given)
90 to 94.8 °C	CCOC(=O)CCCOc1cccc2cc(/C(C)=C/C(=O)N3CCOCC3)oc12
202 to 204 °C	Cc1ccc(S(=O)(=O)OCC2COc3ccc4[nH]c(=O)[nH]c4c3O2)cc1 (stereo not given)
144 to 146 °C	O=C(Nc1ccc2ccc(-c3cccc(Br)c3)nc2n1)c1cccc(Br)c1
115 to 125 °C	Cc1cccc(C)c1-c1nc2ccccc2n2cncc12
115 to 118 °C	CC[C@H](CO)Nc1nc(NCc2ccccc2)c2nnn(C(C)C)c2n1
66 to 68 °C	CCOC(=O)Cc1cccc(N)n1
184 to 188 °C	Cn1c(C(F)(F)F)cc(=O)n(-c2ccc3snc(C4OCC(CS(C)(=O)=O)O4)c3c2)c1=O (stereo not given)
72 to 73 °C	CCOC(=O)c1ccc(N(C=O)Cc2ccc(Cl)cc2)cc1
114 to 116 °C	CC(C)(C)OC(=O)C1CC(c2ccc(N)cc2)CCN1 (stereo not given)
91 °C	CC1=C(C(=O)N(c2ccccc2)C2CCCCCC(F)C2)CCO1 (stereo not given)
98 to 101 °C	O=c1oc(-c2ccccc2)cc(O)c1C(Sc1ccccc1)c1ccc2ccccc2c1 (stereo not given)
265 to 267 °C	CC(=O)Nc1cccc(/C=C/C(=O)O)c1C
263 to 265 °C	CCOC(=O)c1cnc(Nc2ccc(OCC)cc2)[nH]c1=O
127 to 129 °C	O=C(C#Cc1ccc(Cl)cc1)Nc1ccc2c(ccn2CCN2CCCC2)c1
61 to 68 °C	CCOC(=O)c1ccc(NCCCCCCCCc2ccccc2)cc1
122 °C	COC(=O)c1ccc(C2=N[C@H]3CCCC[C@H]3c3cc(OC)c(OC)cc32)cc1 (racemic)
105 to 110 °C	CCCC(=O)n1ccc(-c2ccc(C(=O)N3Cc4cccn4Cc4ccccc43)cc2)n1
124 to 126 °C	Cc1c(Br)cc(S(C)(=O)=O)c(C)c1Cl
189 to 191 °C	O=C(O)c1ccc(C(c2ccccc2)c2ccccc2)cn1
130 to 132 °C	Cc1oc(-c2ccccc2)nc1CCOc1cccc2sccc12
81 to 94 °C	C=C(C)C(=O)CCCCCCOc1ccc(C(=O)O)cc1
172 to 174 °C	CCCOc1c(OC)cc(C(CCC(C(=O)O)c2cc(OC)c(OC)c(OC)c2)C(=O)O)cc1SC (stereo not given)

melting point	Compound
102 to 103 °C	OC1CCCCc2cc(OCC3CCCCC3)ccc21 (stereo not given)
108 to 109 °C	O=C(O)CCNc1cccc(Br)n1
115 to 116 °C	O=[N+]([O-])c1ccc(F)cc1Nc1ccc(F)cc1
109 to 111 °C	BrCCCc1ccc(C=Cc2cc3ccccc3s2)s1
162 to 163 °C	CC1(C)OC(c2ccc(S(N)(=O)=O)cc2)=C(c2ccc(F)cc2)C1=O
178 to 180 °C	CC(C)(CO)CCCCC(CCCCC(C)(C)CO)(C(=O)O)C(=O)O
147 to 149 °C	COc1ccc2c3c(c(=O)oc2c1)CN(Cc1ccc(C)cc1)CC3
94 to 96 °C	COc1ccc(C2(CCO)C=CC=CN2)cc1OC1CCCC1 (stereo not given)
255 to 256 °C	Cc1ccc(O)cc1NC(=O)CC12CC3CC(CC(C3)C1)C2
140 to 141 °C	COC(=O)CNC(=O)c1cc(Cl)nc(Cl)c1
188 °C	COc1ccc(-c2csc(Nc3ccccc3C(F)(F)F)n2)cc1OC
113 to 114 °C	CC(=O)OCC1OC(Oc2ccsc2Cc2ccc(OC(F)(F)F)cc2)C(OC(C)=O)C(OC(C)=O)C1OC(C)=O (stereo not given)
191 to 192 °C	O=C1NC(=S)SC1Cc1cccc2c1CCC(=O)N2Cc1ccc(Br)cc1 (stereo not given)
55 to 57 °C	O=Cc1cccc2oc3c(c12)CCCC3
169 to 170 °C	O=C(c1ccc([N+](=O)[O-])cc1)N1Cc2ccc(C(=O)C(F)(F)F)n2Cc2ccccc21
205 to 207 °C	Cc1nn(CC(F)(F)F)c(C(N)=O)c1[N+](=O)[O-]
207 to 208 °C	CC1(C(=O)c2c[nH]c3ncc(Br)nc23)CCCC1
89 to 90 °C	CCC(C(=O)N(C)C)n1cc(C(C)C)c(-c2ccccc2)n1 (stereo not given)
245 to 247 °C	c1ccc2c(c1)ccc1nn[nH]c12
105 °C	COc1ccc2c(-c3ccccc3)c(C(=O)c3cccc(Cl)c3)sc2c1
133 °C	COc1cccc(C(=O)N2CCCC3=C2CCc2cc(Cl)ccc23)c1
298 to 300 °C	CS(=O)(=O)c1ccc2c(c1)[nH]c(=S)n2NC(=O)c1ccc(Cl)c(S(N)(=O)=O)c1
202 to 204 °C	CCCCc1c(/C=C/C(=O)O)ccc2c(OC)cccc12
110 to 111 °C	O=C(NC(=S)Nc1ccccc1-c1ccccc1F)c1ccccc1

melting point	Compound
122 to 125 °C	CCCCC(=O)N(Cc1ccc(OC)cc1)c1cc(F)cc(-c2nnn[nH]2)c1
46 to 49 °C	COc1cc(CO)cc(F)n1
105 to 107 °C	Nc1ccc(C(O)(Cc2ccccc2)c2ccccc2)cc1 (stereo not given)
217 to 218 °C	COc1ccccc1Oc1c(NS(=O)(=O)c2c(C)noc2C)nc(-c2ncccn2)nc1OCCOC(=O)Nc1ccccn1
177 to 178 °C	COc1cc2c(Nc3cccc(Cl)c3F)ncnc2cc1OC1CCN(C(=O)C2(O)CC2)CC1
105 to 106 °C	CCOC(=O)/C=C/c1cn(-c2ccccc2)nc1OCc1ccccc1
148 to 152 °C	CCOC(=O)c1cn(CC)c2cc(-c3csc(CN(CCOC(C)=O)C(C)=O)n3)c(F)cc2c1=O
216 to 220 °C	COC(=O)C1=C(C)Nc2c(c(C)nn2C)C1c1ccccc1[N+](=O)[O-] (stereo not given)
267 to 269 °C	CC(=O)Nc1ccc(C2=NN(c3nnc(C)s3)[C@H](C)Cc3cc4c(cc32)OCO4)cc1C
174 to 176 °C	CC(C)CCCC(C)C1CCC2C3CC=C4CC(OC(=O)C(C)(C)CO)CCC4(C)C3CCC12C (stereo not given)
204 °C	COc1ccc(S(=O)(=O)C2(C(=O)O)CCN(C(C)(C)C)CC2)cc1
67 to 72 °C	COc1ccc2c(c1)CC(=O)CO2
150 to 152 °C	CC(C)(C)c1ccc(OCC(O)CN2CCC3(CC2)CSC2=C(O3)c3cc(Br)ccc3C(=O)C2=O)cc1 (stereo not given)
150 to 151 °C	ClCc1coc(-c2cc3ccccc3s2)n1
78 to 84 °C	CC(=O)SCCC(=O)N1[C@@H](c2ccccc2O)SC[C@H]1C(=O)N[C@@H](CC(C)C)C(=O)O
134 to 135 °C	CNC(=O)C(=O)CCCCCCS(=O)(=O)c1ccc(-c2ccccc2)cc1
71.5 to 73 °C	CCOC(=O)CCc1ccc(C(=O)c2ccc(Cl)cc2)n1C
110 °C	CCCNC(=O)CCc1ccc2ccn(Cc3ccc(C(=O)NS(=O)(=O)c4ccccc4C)cc3OC)c2c1
88 to 91 °C	CCOC(=O)/C=C/S(=O)(=O)c1ccc(C(C)(C)C)cc1
147 °C	O=C(NO)[C@H](CNS(=O)(=O)c1ccc(OCC2CC2)cc1)N1CCOCC1
100 to 101 °C	CCOC(=O)C1=NNC2C(=O)N(Cc3ccccc3)C(=O)C12 (stereo not given)
170 to 171 °C	COc1ccc(C2=NN(C3CCSCC3)C(=O)[C@H]3CC=CC[C@@H]23)cc1Cl (relative stereo)
70 to 75 °C	CCCN([C@H]1COc2c(F)ccc(C(N)=O)c2C1)C(C)(C)C
161 to 163 °C	CCc1noc(-c2ncc3[nH]c4cccc(CN5CCOCC5)c4c3c2COC)n1

Compound	melting point
O=C1CN=C(c2ccccc2)c2cc(C(c3ccc(Cl)cc3)n3ccnc3)ccc2N1 (stereo not given)	144 °C
COc1cc(C(O)CN)cc(OC)c1OC (stereo not given)	141 °C
O=c1c2ccccc2[nH]c2c(OCCN(CCCl)CCCl)cccc12	131 to 133 °C
[N-]=[N+]=NCCCc1ccc(C(=O)O)s1	71 to 72 °C
